Patent US20090247520A1, “INHIBITORS OF ANTIGEN RECEPTOR-INDUCED NF-kappa B ACTIVATION” (The Burnham Institute for Medical Research, priority 2008, published 2009)
“Also recorded” adds a separate entry of the source.

Experiments:
[1] = tested on: cIAP2/MALT oncoprotein induced NF-κB activation; assay: NF-κB reporter in 293-NF-κB-luciferase cells transfected with cIAP2/MALT; format: cell-based; conditions: CID-2858522 4 μM, IKK inhibitor 10 μM
Protocol: (§1) FIGS. 3 (A-F) HEK293-NF-κB-luc cells were pretreated with CID-2858522 (4 μM), IKK inhibitor, BMS-335541 (10 μM), or PKC inhibitor, Bisindolylmaleimide I (1 μM) for 2 hrs and then transfected with plasmids encoding CD4/TLR4 (A), CD40 (B), NOD1 (C), NOD2 (D), cIAP2-MALT1 (E), or XIAP and TAB (F), or pcDNA as control (compounds were not removed). After 48 hrs, luciferase activity was measured expressing data as fold increase relative to unstimulated cells (mean±SD; n=3). (G-H) HEK293-NF-κB-luc cells were pretreated with CID-2858522 (4 μM), or IKK inhibitor, BMS-335541 (10 μM) for 2 hrs and then cultured with 2 μM doxorubicin (G) or 16 μM retinoic acid (H). After 48 hrs, luciferase activity was measured as above.
Counter Screening and Secondary Assays. To counter-screen for inhibitors of the TNF pathway, HEK293-NFκB-Luc cells were seeded at 10^5 cells per well in 90 μL medium in white 96-well plates (Greiner Bio-One) and cultured overnight, before adding compounds (5 μL in medium) to cells. After 2 h incubation, 5 μL TNF (200 ng/mL) (R&D Systems) was added (final concentration 10 ng/mL) and cells were incubated for 16 h. Luciferase activity was measured using Britelite kit (Perkin Elmer). To counter-screen for inhibitors of NF-κB induced by TLR4, CD40, NOD1, NOD2, cIAP2/MALT, or XIAP/TAB, the 293-NF-κB-luc cells cultured in 96 well plates as above were pretreated with compounds for 2 h and then transfected using Lipofectamine 2000 with various plasmids including pcDNA3 (“empty vector” control) or plasmids encoding CD4-TLR4, CD40, NOD1, NOD2, cIAP2/MALT, XIAP/TAB, using 0.2 μL of transfection reagent containing 100 ng DNA per well. Cells were cultured in medium containing CID-2858522 or other compounds and luciferase activity was measured 48 h later. […] Reactions were then initiated by addition of 50 μL 160 nM ATP (Sigma) in PBS and luciferase activity was measured 2 h later using a luminometer (LJL Biosystems, Sunnyvale, Calif.).

[2] = tested on: NOD1 (NLRC1) induced NF-κB-luciferase reporter gene activity; assay: NF-κB reporter in HEK293-NF-κB-luc cells over-expressing NOD1; format: cell-based; conditions: CID-2858522 4 μM, IKK inhibitor 10 μM
Protocol: as §1
Counter Screening and Secondary Assays. To counter-screen for inhibitors of the TNF pathway, HEK293-NFκB-Luc cells were seeded at 10^5 cells per well in 90 μL medium in white 96-well plates (Greiner Bio-One) and cultured overnight, before adding compounds (5 μL in medium) to cells. […] Luciferase activity was measured using Britelite kit (Perkin Elmer). […] Cells were cultured in medium containing CID-2858522 or other compounds and luciferase activity was measured 48 h later. […] Reactions were then initiated by addition of 50 μL 160 nM ATP (Sigma) in PBS and luciferase activity was measured 2 h later using a luminometer (LJL Biosystems, Sunnyvale, Calif.).

c-FLIP processing = assay: PMA/Ionomycin-induced c-FLIP processing in HEK293 cells (immunoblot); format: cell-based; conditions: CID-2858522 4 μM, PKC inhibitor 1 μM
Protocol: FIG. 7. CID-285852 inhibits IKKβ phosphorylation induced by PKC activators. (A) HEK293 cells were cultured in 0.5% FBS medium for 24 h and then treated with CID-2858522 (4 μM) or PKC inhibitor, Bisindolylmaleimide I (1 μM) for 2 hrs followed by PMA/Ionomycin (10 ng/mL; 5 ng/mL) for 2 h. Cell lysates were subjected to immunoprecipitation using anti-CARMA1 antibody and analyzed by immunoblotting with anti-phospho-CARMA1 antibody or anti-CARMA1 antibody. (B-E) HEK293 cells were transfected with plasmids encoding myc-CARMA1 in combination with plasmids encoding various other proteins including Caspase-8 (cys287ala) (B), HA-IKK-γ (C), HA-TAK1 (D), and TRAF6 (E). […] Cell lysates were immunoprecipated using anti-myc antibody and analyzed by immunoblotting using anti-Caspase8 (B), anti-HA (C,D), or anti-TRAF6 (E) antibodies. […] Cell lysates were normalized for protein content and analyzed by immunoblotting using anti-FLIP and anti-alpha-tubulin antibodies. […] Cell lysates were immunoprecipitated using anti-IKK-β and analyzed by immunoblotting using anti-phospho-IKK-β antibody or anti-IKK-β antibody (as loading control). […]
Caspase-8 plays an essential role in antigen receptor-mediated NF-κB activation. […] We then assessed the effects of CID-2858522 on PMA-induced proteolytic processing of c-FLIP, a Caspase-8-mediated event recently shown to be required for antigen receptor mediated NF-κB activation.

[3] = tested on: MALT1-caspase-8 interaction; assay: PMA-induced MALT1-caspase-8 interaction in HEK293 cells; format: cell-based; conditions: HEK293 over-expressing Flag-MALT1 and Caspase-8, PMA
Text: Caspase-8 plays an essential role in antigen receptor-mediated NF-κB activation. It was recently reported that MALT1 interacts with Caspase-8 and activates this protease upon antigen receptor activation. […] We then examined if CID-2858522 affected the pathway at this point. PMA induced significant MALT1-caspase-8 interaction in HEK293 cells over-expressing Flag-MALT1 and Caspase-8. […] The caspase-8 p43/41 processing intermediate was generated in HEK293 cells after PMA/Ion treatment. […] We then assessed the effects of CID-2858522 on PMA-induced proteolytic processing of c-FLIP, a Caspase-8-mediated event recently shown to be required for antigen receptor mediated NF-κB activation.

TRAF1 induction = assay: TRAF1 expression in anti-IgM-stimulated CLL B-cells (immunoblot); format: cell-based, human; conditions: 24 hr after stimulation
Protocol: (A) Isolated mouse primary splenocytes were cultured with anti-CD3/anti-CD28 (0.3 μg/mL each) or anti-IgM (3 μg/mL) for 48 h, then 1 μCi 3H-Thymidine was added for 12 h and incorporation into DNA was measured, expressing data as fold increase above unstimulated cells (mean±SD; n=3). (B-D) Primary splenocytes were pretreated for 2 h with IKK inhibitor, BMS-335541 (B), PKC inhibitor, Bisindolylmaleimide I (C) or CID-2858522 (D), then stimulated with anti-CD3/anti-CD28 (0.3 μg/mL) or anti-IgM (3 μg/mL) for 48 h. 1 μCi 3H-Thymidine was added for 12 h and incorporation into DNA was measured, expressing data as percent inhibition relative to control cells treated with DMSO (mean±SD; n=3). […] Levels of TRAF1 and β-actin were assessed by immunoblotting, quantified by densitometry and TRAF1 results reported relative to control cells, after normalization for β-actin (mean±SD). […] Then nuclear extracts were prepared and p65-DNA-binding activity was measured (mean±SD; n=3).
Chronic Lymphocytic Leukemia (CLL) cell culture. Peripheral blood mononuclear cells from CLL patients were obtained under IRB approval from whole blood by Ficoll density gradient centrifugation and cultured with RPMI 1640 Medium supplemented with 10% FBS and antibiotics.

Structure (SMILES) | suppression of cIAP2/MALT-driven NF-κB activation [1] | inhibition of NOD1-induced NF-κB reporter [2] | suppression of cIAP2/MALT-driven NF-κB activation ([1]; listed as CID-288522) | inhibition of c-FLIP processing (c-FLIP processing) | inhibition of MALT1-caspase-8 interaction [3] | inhibition of anti-IgM-stimulated TRAF1 expression (TRAF1 induction)
Cc1ccc2nc(NCCN)c3ncc(C)n3c2c1 [BMS-345541, reference compound] | effectively suppressed | inhibited |  |  |  | 
Cc1cc2nc(NCCCO)n(CC(=O)c3cc(C(C)(C)C)c(O)c(C(C)(C)C)c3)c2cc1C [Compound 1, 2-(2-(3-Hydroxypropylamino)-5,6-dimethyl-1H-benzo[d]imidazol-1-yl)-1-(3,5-di-tert-butyl-4-hydroxyphenyl)ethanone] | did not inhibit | did not inhibit; also recorded: not by CID-2858522 | did not | not affected | not by CID-2858522 | inhibited
CN(C)CCCn1cc(C2=C(c3c[nH]c4ccccc34)C(=O)NC2=O)c2ccccc21 [Bisindolylmaleimide I, reference compound] |  |  |  | completely inhibited | inhibited | also inhibited
